Results on 1 compound are retold here after patent US20160310510A1, “MEDICINAL COSMETIC LIPOATROPHY” (priority 2009, published 2016).

Entries after “also recorded” stand apart in the source; their conditions may differ.

One data set has as its system adipocytes. In words: Punch biopsies before and after single treatment, HE histology and morphometry of adipocytes. It is filed as in vivo, human. As for the experimental part: (§1) A series of cases of small localized fat deposits on the face were treated with local triancinolone from March 2005 to October 2008 at a private clinic in Porto Alegre, southern of Brazil. […] They received injections of triamcinolone (Kenalog®-40 Injection) diluted in anesthetic solution (0.02 g/mL Lidocaine plus 0.0004 g/mL Phenilephrine—Novocol®), in different doses and number of applications (up to 3 injections, once a month), according to patient's needs. […] Patients received injections in these fatty areas of the face, through a 0.3 cc BD Ultra Fine II syringe with short needle of minimum 7 or 8 mm long.
Another patient was submitted to 3 mm punch biopsies (one on the submental area and another on suprapubical area) before and after single treatment. Histological specimens of SQ tissue were stained with hematoxylin and eosin (HE stain) and […] was also performed in the histological images of before and after treatment samples.

The conditions of data set [1]: cited from earlier work.
Data set [2] has as its system small localized fat deposits on the face. Kind of data set: Retrospective series of 56 patients treated with local triamcinolone injections: clinical evaluation, satisfaction, side effects.
Data set [3] deals with SQ adipose tissue of the face. In words: Facial MRI before and after triamcinolone injections, thickness of SQ adipose tissue. It counts as in vivo, human. The protocol: as §1
One patient was submitted to a facial Magnetic Resonance Imaging (MRI) exam before and after the triamcinolone injections, in order to show the results in terms of the changes in the thickness of subcutaneous tissue. Magnetic resonance imaging examination was performed with 1.5 Tesla Closed Bore Scanner (Magnetom Symphony Maestro Class, Siemens, Erlangen, Germany) with dedicated flexible coils. T1-weighted (600 ms/14 ms, Time Repetition/Time Echo) and T2-weighted (2500 ms/45 ms, TR/TE) turbo spin echo sequences were performed in coronal, axial and sagittal planes, with emphasis on the sagittal plane. An experienced radiologist evaluated the MRI images. The thickness of SQ adipose tissue was measured with Syngo software (Siemens, Erlangen, Germany) in millimetres (mm).

As for `CC1(C)O[C@@H]2C[C@H]3[C@@H]4CCC5=CC(=O)C=C[C@]5(C)[C@@]4(F)[C@@H](O)C[C@]3(C)[C@]2(C(=O)CO)O1` [triamcinolone, Triamcinolone acetonide], in the data set with adipocytes (before and after single treatment biopsies), the “reduction in the volume of adipocytes in the sites of the injections (histological analysis)” value is “about 30%”. In the data set with adipocytes (suprapubical area biopsy, one month after a single injection, before treatment 4), the “average number of adipocytes observed in the optical field at the same magnification” value was 7 adipocytes per field. In addition, the “average diameter of the adipocytes” value in the data set with adipocytes (suprapubical area biopsy, one month after a single injection, before treatment 190) stood at 153 pixels. The “average area of the adipocytes” value in the data set on adipocytes (suprapubical area biopsy, one month after a single injection, before treatment 31661) is given as 21705 pixels. Also, the “concentration with greater risk of cutaneous atrophy” value in data set [1] (intralesional injections, Pariser and Murray 1963) was “above 5 mg/cm^3”. In data set [1] (local injections), the safe dose result is “less than 0.15 mg/kg”. The “subject satisfaction with the results of the procedure” value in data set [2] (29 subjects (51.78%) who returned for evaluation) is on record as “very satisfied”. The “physician evaluation of clinical and cosmetic improvement” value in data set [2] (29 subjects who returned for evaluation) is “good clinical and cosmetic improvement of facial contour”. For the same compound, in data set [2] (Kenalog-40 diluted in lidocaine plus phenilephrine, up to 3 monthly subcutaneous injection sessions), the “serious / severe adverse events” value was “No severe local or systemic side effects were observed; also recorded: did not presented serious adverse events”. Further, the “local side effects observed” value in data set [2] (during and after the injections) is “pain and slight erythema; also recorded: hematomas in variable number and size”. For the same compound, the “number of patients with cosmetic local side effects” value in data set [2] (of the treated series) is on record as “three”. Moreover, in data set [3] (after single session of injections, FIGS. 3 and 4), the “reduction of the thickness of the study area of facial fat (MRI)” value is 27.3%. Besides, in data set [3] (after single session, before treatment 1.1 cm), the “thickness of the study area of facial fat after treatment (MRI)” value came out at 0.8 cm. The “reduction of the fat thickness showed by MRI” value in data set [3] (mandibular area) is recorded as 37.5%; in data set [3] (submental area), 33.3%. Further, the “fat thickness after treatment (MRI)” value in data set [3] (mandibular area, before treatment 0.8 cm) is given as 0.5 cm; in data set [3] (submental area, before treatment 0.6 cm), 0.4 cm.
